Test results: patent publication US20240115557A1, “INHIBITORS OF RNA-GUIDED NUCLEASES AND USES THEREOF” (The Brigham and Women's Hospital, Inc., priority 2022, published 2024)

Tests used:
SpCas9 [1] = target: T1, SpCas9 (Streptococcus pyogenes serotype M1, UniProt Q99ZW2); experiment: eGFP disruption assay, SpCas9, U2OS.eGFP.PEST cells; type: cell-based; conditions: for Normalized Z rep1 / Z score Rep1 / % GFP+, Rep 1: replicate 1; for SpCas9 eGFP disruption Rep1: replicate 1, raw readout; for Normalized Z rep2 / Z socre Rep2 / % GFP+, Rep 2: replicate 2; for SpCas9 eGFP disruption Rep2: replicate 2, raw readout; for Activity in eGFP-disruption assay: result in words, relative to BRD7586
T1 sequence (Q99ZW2 whole entry): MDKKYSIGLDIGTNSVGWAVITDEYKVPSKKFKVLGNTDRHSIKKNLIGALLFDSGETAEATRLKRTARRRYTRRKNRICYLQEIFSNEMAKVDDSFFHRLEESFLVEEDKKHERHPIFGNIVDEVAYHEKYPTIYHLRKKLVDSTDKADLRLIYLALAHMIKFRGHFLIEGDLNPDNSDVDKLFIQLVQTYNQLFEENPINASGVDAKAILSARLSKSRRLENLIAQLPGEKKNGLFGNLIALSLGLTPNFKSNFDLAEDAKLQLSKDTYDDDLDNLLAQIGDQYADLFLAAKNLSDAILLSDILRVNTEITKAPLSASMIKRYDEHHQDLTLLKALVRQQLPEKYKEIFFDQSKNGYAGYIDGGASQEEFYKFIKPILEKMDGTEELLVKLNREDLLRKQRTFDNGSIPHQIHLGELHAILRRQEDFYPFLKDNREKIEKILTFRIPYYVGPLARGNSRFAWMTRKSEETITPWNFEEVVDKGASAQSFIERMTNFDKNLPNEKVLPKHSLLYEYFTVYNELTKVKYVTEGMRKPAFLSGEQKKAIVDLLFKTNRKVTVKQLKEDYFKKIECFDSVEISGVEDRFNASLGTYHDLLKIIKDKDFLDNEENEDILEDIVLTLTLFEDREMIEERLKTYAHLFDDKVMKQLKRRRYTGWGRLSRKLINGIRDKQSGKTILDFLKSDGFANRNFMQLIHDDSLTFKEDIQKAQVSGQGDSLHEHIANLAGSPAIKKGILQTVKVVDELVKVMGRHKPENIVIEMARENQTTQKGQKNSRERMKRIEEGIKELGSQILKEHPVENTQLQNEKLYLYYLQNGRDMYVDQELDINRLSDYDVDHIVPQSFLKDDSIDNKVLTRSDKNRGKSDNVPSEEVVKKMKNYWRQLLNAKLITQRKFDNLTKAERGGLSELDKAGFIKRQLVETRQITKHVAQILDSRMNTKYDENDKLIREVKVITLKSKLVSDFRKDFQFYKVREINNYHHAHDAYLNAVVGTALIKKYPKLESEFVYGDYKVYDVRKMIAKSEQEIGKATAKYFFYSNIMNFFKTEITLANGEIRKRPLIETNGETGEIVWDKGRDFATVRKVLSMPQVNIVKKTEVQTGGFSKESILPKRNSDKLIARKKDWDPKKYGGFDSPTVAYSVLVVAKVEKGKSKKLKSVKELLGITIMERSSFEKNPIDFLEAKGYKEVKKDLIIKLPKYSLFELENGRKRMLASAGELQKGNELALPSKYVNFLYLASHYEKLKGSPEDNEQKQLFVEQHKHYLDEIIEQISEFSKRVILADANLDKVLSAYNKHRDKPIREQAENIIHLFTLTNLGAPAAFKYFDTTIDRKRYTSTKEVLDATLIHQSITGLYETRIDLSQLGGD
Method in brief: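 Rescue of eGFP signal lost through Cas9-induced NHEJ indels serves as the inhibition read-out, after 24 h compound exposure (20 μM for hits, variable for dose-response). Editing was delivered by nucleofection into U2OS.eGFP.PEST cells as SpCas9/gRNA plasmids (300/30 ng) or RNP (10/12 pmol). Toxic and autofluorescent compounds were excluded.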

SpCas9 [2] = target: T1, SpCas9; experiment: HiBiT knock-in assay, SpCas9, HEK293T cells; type: cell-based; conditions: for Activity in HiBiT knock-in assay: result in words, relative to BRD7586
From the text: Primary and secondary screening. The primary screen assayed a selection of unique chemical scaffolds derived from commercially available compounds and known bioactive molecular libraries (Table 7). Auto-fluorescent compounds were removed by a counter screen. Overall, the CAA was used to assay 122,409 small molecules with over 2,500 unique chemical scaffolds (FIG. 64F, Table 7). Of these compounds, 547 were selected as hits (Z score >3 in both replicates) for testing in orthogonal cell-based secondary assays. Hits were tested in duplicate in an eGFP disruption assay, wherein U2OS.eGFP.PEST cells^33 transfected with SpCas9 plasmid and eGFP-targeting gRNA plasmid were incubated with 20 μM of the compounds. In this assay, any compound that inhibited SpCas9 would rescue the loss of eGFP fluorescence. Here, toxic and auto-fluorescent compounds with a high GFP signal in cells were removed as false positives. […] Next, Applicants tested the 15 compounds in a luminescence-based gain-of-signal HiBiT knock-in assay, which involves SpCas9-mediated homology-directed tagging of GAPDH with a short peptide that luminesces upon complementation with a subunit derived from nanoluciferase.^34 Complementarily, the eGFP-disruption assay is fluorescence-based and involves error-prone DNA repair. As a counter-screen to remove false positives caused by cell death (viability <80%), the cell viability was measured after incubation.
Approximately 400,000 HEK293T cells were nucleofected with 400 ng of SpCas9 plasmid, 40 ng of GAPDH-targeting gRNA plasmid, and 40 pmol of single-strand oligodeoxynucleotide (ssODN) using SF Cell Line 4D-Nucleofector X Kit (Lonza) following the pulse program of DS-150. For RNP-based genome editing, 10 pmol of Cas9 and 12 pmol of gRNA were mixed and incubated for 5 min. Then, 20 pmol of ssODN was added. Cells were nucleofected with the resulting mixture using the same pulse program. Cells were then transferred to a 96-well plate at the density of 35,000 cells per well, and incubated with indicated amount of compounds for 24 h. Cell viability was measured using PrestoBlue reagent (Thermo) with a SpectraMax M5 (Molecular Devices) at the excitation and emission wavelength of 544 nm and 590 nm, respectively. Next, luminescence measurement was performed using the Nano-Glo HiBiT Lytic Detection System (Promega) according to the manufacturer's protocol with an EnVision Multilabel Plate Reader (PerkinElmer) at the integration time of 0.5 s per well. The resulting luminescence signals were normalized based on the cell viability.^34

FnCpf1 = FnCpf1 (Francisella tularensis subsp. novicida, UniProt A0Q7Q2); type: biochemical; conditions: 20 uM
Sequence of FnCpf1 (A0Q7Q2 whole entry, looked up): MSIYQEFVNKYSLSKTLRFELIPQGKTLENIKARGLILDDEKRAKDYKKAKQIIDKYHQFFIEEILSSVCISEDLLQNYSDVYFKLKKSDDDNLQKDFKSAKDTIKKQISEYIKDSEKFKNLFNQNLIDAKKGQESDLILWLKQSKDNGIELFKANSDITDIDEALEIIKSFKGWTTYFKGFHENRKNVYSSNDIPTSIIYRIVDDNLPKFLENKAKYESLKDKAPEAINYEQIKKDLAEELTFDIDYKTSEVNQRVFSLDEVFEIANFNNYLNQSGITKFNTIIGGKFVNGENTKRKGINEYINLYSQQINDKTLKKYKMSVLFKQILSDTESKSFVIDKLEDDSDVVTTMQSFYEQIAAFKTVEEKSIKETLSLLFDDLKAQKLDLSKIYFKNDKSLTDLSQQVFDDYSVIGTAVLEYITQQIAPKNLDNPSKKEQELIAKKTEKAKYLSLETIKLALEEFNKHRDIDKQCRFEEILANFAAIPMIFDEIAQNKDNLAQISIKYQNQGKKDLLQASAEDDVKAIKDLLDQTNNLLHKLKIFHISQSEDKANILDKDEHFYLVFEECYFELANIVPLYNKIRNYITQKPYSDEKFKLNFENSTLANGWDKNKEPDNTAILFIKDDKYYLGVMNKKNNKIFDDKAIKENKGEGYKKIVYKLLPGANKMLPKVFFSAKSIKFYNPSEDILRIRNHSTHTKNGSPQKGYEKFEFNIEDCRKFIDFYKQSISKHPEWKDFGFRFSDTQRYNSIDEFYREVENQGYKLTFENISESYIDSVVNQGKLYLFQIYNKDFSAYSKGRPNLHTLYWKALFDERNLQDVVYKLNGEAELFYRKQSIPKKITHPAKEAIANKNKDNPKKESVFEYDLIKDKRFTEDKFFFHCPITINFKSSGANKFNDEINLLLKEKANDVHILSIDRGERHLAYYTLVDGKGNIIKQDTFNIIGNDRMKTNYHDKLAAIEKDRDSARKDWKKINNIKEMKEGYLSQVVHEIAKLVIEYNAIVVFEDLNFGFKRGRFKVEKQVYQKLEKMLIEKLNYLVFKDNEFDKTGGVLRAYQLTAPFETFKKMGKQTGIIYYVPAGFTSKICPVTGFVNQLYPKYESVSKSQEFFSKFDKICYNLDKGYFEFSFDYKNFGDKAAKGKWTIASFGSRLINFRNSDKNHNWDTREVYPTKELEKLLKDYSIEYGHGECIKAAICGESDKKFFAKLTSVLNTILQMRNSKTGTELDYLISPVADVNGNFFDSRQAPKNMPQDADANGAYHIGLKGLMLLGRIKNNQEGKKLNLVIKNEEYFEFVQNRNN

[3] = system: restriction endonuclease Nde1; experiment: Gel cleavage specificity assay, Nde1; type: biochemical; conditions: 20 uM
SpCas9 [4] = target: T1, SpCas9; experiment: Strand displacement assay (SDA) / cumulative activity assay (CAA), SpCas9 primary screen; type: biochemical; conditions: Primary Screen (150 min); for Normalized Z score 1: replicate 1; for Normalized Z score 2: replicate 2
Method in brief: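 SpCas9:gRNA RNP in 20 mM Tris-HCl pH 7.5, 100 mM KCl, 5 mM MgCl2 was used at 10 nM (2× stock) with Alexa Fluor 647-labelled substrate and excess quencher strand (1 nM and 5 nM, 2× stocks). Fluorescence was read after 2.5 h at 37 °C, where cleavage lets the quencher strand anneal.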

[5] = Cas9 = lower control, Ctrl = upper control
[6] = normalized, lower control about 0, upper control about 1

SMILES	eGFP disruption-% inhibition (SpCas9 [1])	Z score Rep1 (SpCas9 [1])	Z socre Rep2 (SpCas9 [1])	Hibit assay-% inhibition (SpCas9 [2])	avg z score primary (SpCas9 [4])	Normalized Z score 1 (SpCas9 [4])	Normalized Z score 2 (SpCas9 [4])	% GFP+, Rep 1 (SpCas9 [1]; eGFP assay)	Z score Rep1 (SpCas9 [1]; eGFP assay)	% GFP+, Rep 2 (SpCas9 [1]; eGFP assay)	SpCas9 eGFP disruption Rep1 (SpCas9 [1]; [5])	Normalized Z rep1 (SpCas9 [1]; [6])	SpCas9 eGFP disruption Rep2 (SpCas9 [1]; [5])	Normalized Z rep2 (SpCas9 [1]; [6])	also measured
c1ccc(-c2nnc3sc(-c4cc5ccccc5o4)nn23)nc1 [Compound D727-0535]	18.61%	−0.99	−2.07	18.11%											Normalized Z rep1 (SpCas9 [1]): −0.14; SpCas9 eGFP disruption Rep1 (SpCas9 [1]): 63.743; Normalized Z rep2 (SpCas9 [1]): −0.22; SpCas9 eGFP disruption Rep2 (SpCas9 [1]): 56.828
CCc1cccc(-n2nnnc2N2CCN(C(=O)Nc3ccc(Br)c(C)c3)CC2)c1 [Compound L378-0372]															Activity against FnCpf1 in gel cleavage assay (FnCpf1): active in Fncpf1; Activity against Nde1 in gel cleavage assay [3]: not Nde1
COc1ccc(Cc2nn3c(-c4cccnc4)nnc3s2)cc1OC [Compound D727-0069]	24.03%	−2.26	−1.55	8.56%											Normalized Z rep1 (SpCas9 [1]): −0.31; SpCas9 eGFP disruption Rep1 (SpCas9 [1]): 59.543; Normalized Z rep2 (SpCas9 [1]): −0.17; SpCas9 eGFP disruption Rep2 (SpCas9 [1]): 58.398
Cc1ccccc1C(=O)Nc1nc2ccc(S(N)(=O)=O)cc2s1 [Compound G786-1547]	42.41%	3.88	9.85	4.3%	3.81	0.04	0.04	82.8%	3.88	84.09%	82.802	0.37	84.086	0.43	Average Normalized Z score (SpCas9 [4]): 0.04
NC1=C(c2nc3ccccc3s2)C(=O)CN1N=Cc1ccc(-c2ccc(S(=O)(=O)Nc3ncccn3)cc2)o1 [Compound T5371551]	22.88%	2.50	11.57	−12.66%	9.04	0.61	0.58	64.28%	2.50	76.75%	64.278	0.17	76.754	0.56	Average Normalized Z score (SpCas9 [4]; average of replicates): 0.60
CCc1cccc(-n2nnnc2N2CCN(C(=O)Nc3ccc(C)cc3C)CC2)c1 [Compound L378-0355]															Activity against FnCpf1 in gel cleavage assay (FnCpf1): active in Fncpf1; Activity against Nde1 in gel cleavage assay [3]: not Nde1
O=C(CCS(=O)(=O)c1ccc(Cl)cc1)Nc1nc(-c2ccncc2)cs1 [Compound G786-1325]	56.65%	5.65	12.44	97.09%	4.35	0.05	0.04	86.01%	5.65	86.24%	86.012	0.54	86.243	0.54	Average Normalized Z score (SpCas9 [4]): 0.04
O=C(CCS(=O)(=O)c1ccc(Cl)cc1)Nc1nc(-c2ccccn2)cs1 [Compound G786-1324]	32.94%	3.12	4.86	94.5%	4.44	0.05	0.04	81.43%	3.12	79.94%	81.427	0.30	79.939	0.21	Average Normalized Z score (SpCas9 [4]): 0.05
CCc1cccc(-n2nnnc2N2CCN(C(=O)Nc3cccc(C)c3)CC2)c1 [Compound L378-0350]															Activity against FnCpf1 in gel cleavage assay (FnCpf1): active in Fncpf1; Activity against Nde1 in gel cleavage assay [3]: not Nde1
O=C(CSc1nccn1-c1cccc(F)c1)N1CCN(c2ccc(O)cc2)CC1 [Compound T5535170]	27.53%	3.93	5.41	68.25%	4.37	0.28	0.33	67.96%	3.93	65.34%	67.964	0.28	65.339	0.26	Average Normalized Z score (SpCas9 [4]; average of replicates): 0.31
CCN1C(=O)c2cccc3cccc1c23 [Compound T0503-6911]	26.33%	3.76	6.09	18.06%	6.86	0.06	0.10	67.52%	3.76	66.59%	67.522	0.26	66.588	0.29	Average Normalized Z score (SpCas9 [4]; average of replicates): 0.08
O=C(CCS(=O)(=O)c1ccccc1)Nc1nc(-c2ccncc2)cs1 [Compound G786-1264]	41.72%	3.83	9.69	72.63%	5.95	0.06	0.06	82.72%	3.83	83.95%	82.717	0.37	83.951	0.42	Average Normalized Z score (SpCas9 [4]): 0.06
O=C(CCSc1ccc(Cl)cc1)Nc1nc(-c2ccc(Br)cc2)cs1 [BRD0033]															Activity in eGFP-disruption assay (SpCas9 [1]): inactive; Activity in HiBiT knock-in assay (SpCas9 [2]): inactive
O=C(CCSc1ccc(Cl)cc1)Nc1nc(-c2ccncc2)cs1 [Compound F2537-0908]															Activity in eGFP-disruption assay (SpCas9 [1]): significantly lower inhibitory activity; Activity in HiBiT knock-in assay (SpCas9 [2]): significantly lower inhibitory activity
Cc1nc2ccccc2c(C)c1CC(=O)N1CCN(c2ccc(O)cc2)CC1 [Compound T5461482]	24.48%	3.50	6.37	36.6%	3.23	0.09	0.10	66.84%	3.50	67.11%	66.842	0.24	67.113	0.31	Average Normalized Z score (SpCas9 [4]; average of replicates): 0.10
COc1ccc(Cc2nnc3sc(Cc4ccc(OC)c(OC)c4)nn23)cc1 [Compound D727-0165]	25.03%	1.09	−0.43	22.01%							70.62	0.15	61.783	−0.05	
